Measurements taken from publication doi:10.1101/454710v1 (biorxiv, 2018).

What was measured:
Assay in all cases: whole-cell patch clamp
Assay type in all cases: cell-based
Details in all cases: agonist; pH 7.4
heteromeric α2β GlyR = tested on: heteromeric α2β GlyR
heteromeric α3β GlyR = tested on: heteromeric α3β GlyR
homomeric α3 GlyR = tested on: homomeric α3 GlyR
homomeric α2 GlyR = tested on: homomeric α2 GlyR

Structure (SMILES): NCC(=O)O [glycine]
- EC50 (heteromeric α2β GlyR): 91 µM
- EC50 (heteromeric α3β GlyR): 395 µM
- EC50 (homomeric α3 GlyR): 166 µM
- EC50 (homomeric α2 GlyR): 99 µM
